From patent US11219625B2, “Inhibitors of N-linked glycosylation and methods using same” (YALE UNIVERSITY, priority 2015, dated 2022)

What was measured:
Assay type in all cases: cell-based
PC9 cells = assay: MTT proliferation assay, PC9; details: PC9, 10 μM NGI-1, after 3 days, p<0.001
Experimental: (§1) FIGS. 4A-4H illustrate the finding that NGI-1 blocks RTK driven proliferation. FIG. 4A illustrates western blot analysis of EGFR phosphorylation (Y1173) and gel mobility in PC9 (EGFR-mutant) and A549 (k-ras mutant) NSCLC cells after 10 μM NGI-1 treatment for 24 h. […] Actin expression was used as a control for protein loading. FIG. 4B illustrates MTT assays results of PC9 following treatment with 10 μM NGI-1 or 1 μM tunicamycin for a total of 5 d. Relative proliferation id reported in fold increase from day 0. FIG. 4C illustrates MTT assays results of A549 following treatment with 10 μM NGI-1 or 1 μM tunicamycin for a total of 5 d. Relative proliferation id reported in fold increase from day 0. FIG. 4D illustrates protein phosphorylation profiles of PC9 cells analyzed by phospho-protein array to assess the response of PC9 to 10 μM NGI-1 for 24 h. FIG. 4E illustrates protein phosphorylation profiles of A549 cells analyzed by phospho-protein array to assess the response of A549 to 10 μM NGI-1 for 24 h. […]
(§2) Growth rates were determined by CellTiter 96 NonRadioactive Cell Proliferation Assay (Promega; Madison, Wis. USA) according to the manufacturer's directions. […] Cell numbers were estimated after 0, 3, and 5 days by adding MTT [(3-(4,5-Dimethylthiazol-2-yl)-2,5-diphenyltetrazolium bromide] reagent to the wells 4 hours before taking the spectrophotometric reading (absorbance at 570 nm).

H1581 cells = assay: MTT proliferation assay, H1581; details: H1581, 10 μM NGI-1, 5 d
Experimental: as §1, §2

A549 cells = assay: MTT proliferation assay, A549; details: A549, 10 μM NGI-1 or 1 μM tunicamycin
Experimental: as §1, §2

FGFR1 = assay: Western blot of FGFR phosphorylation, H1581 and H2444 cells; details: H1581 and H2444, FIG. 4F
Experimental: FIGS. 4A-4H illustrate the finding that NGI-1 blocks RTK driven proliferation. FIG. 4A illustrates western blot analysis of EGFR phosphorylation (Y1173) and gel mobility in PC9 (EGFR-mutant) and A549 (k-ras mutant) NSCLC cells after 10 μM NGI-1 treatment for 24 h. […] Actin expression was used as a control for protein loading. FIG. 4B illustrates MTT assays results of PC9 following treatment with 10 μM NGI-1 or 1 μM tunicamycin for a total of 5 d. Relative proliferation id reported in fold increase from day 0. FIG. 4C illustrates MTT assays results of A549 following treatment with 10 μM NGI-1 or 1 μM tunicamycin for a total of 5 d. Relative proliferation id reported in fold increase from day 0. FIG. 4D illustrates protein phosphorylation profiles of PC9 cells analyzed by phospho-protein array to assess the response of PC9 to 10 μM NGI-1 for 24 h. FIG. 4E illustrates protein phosphorylation profiles of A549 cells analyzed by phospho-protein array to assess the response of A549 to 10 μM NGI-1 for 24 h. FIG. 4F illustrates western blot analysis of FGFR phosphorylation (Y653/654) and gel mobility for H1581 (TKI sensitive) and H2444 (TKI insensitive) NSCLC cell lines. […] FIG. 4G illustrates MTT assays for H1581 cells treated with 10 μM NGI-1 for 5 d. Asterisk (***) indicates a significant difference p<0.001 for MTT. FIG. 4H illustrates MTT assays for H2444 cells treated with 10 μM NGI-1 for 5 d. […]

HCC827 cells = assay: MTT proliferation assay, HCC827; details: HCC827, 10 μM NGI-1, 5 d, p<0.05
Experimental: FIGS. 7A-7D illustrate EGFR kinase domain mutant cell lines growth inhibition and cell cycle arrest response to NGI-1. FIG. 7A illustrates MTT assays to determine the effects of NGI-1 on growth of H3255 cells. FIG. 7B illustrates MIT assays to determine the effects of NGI-1 on growth of HCC827 cells. EGFR kinase domain mutant cell lines H3255 and HCC827 cells were untreated or treated with 10 μM NGI-1 for 5 d. […] FIG. 7C illustrates cell cycle distribution of H3255 after 24 h NGI-1 treatment for 24 h determined by flow cytometry. FIG. 7D illustrates cell cycle distribution of HCC827 after 24 h NGI-1 treatment for 24 h determined by flow cytometry.
Growth rates were determined by CellTiter 96 NonRadioactive Cell Proliferation Assay (Promega; Madison, Wis. USA) according to the manufacturer's directions. Briefly, NSCLC cells (2×10^3) untreated or treated with […] NGI-1 or 1 μM Tn, were seeded in triplicates in 96-wells plates and grown in culture medium containing […]. Cell numbers were estimated after 0, 3, and 5 days by adding MTT [(3-(4,5-Dimethylthiazol-2-yl)-2,5-diphenyltetrazolium bromide] reagent to the wells 4 hours before taking the spectrophotometric reading (absorbance at 570 nm).

HepG2 cells = assay: Celltiter Glo viability assay, HepG2; details: HEPG2 EC50 over NLG AC40
Text: (§3) The HTS approach using the bioluminescent N-linked glycosylation reporter (CCR 2011) in D54-ERLucT and D54-LucT cells has been previously described (Bennett, et al., Transl Oncol 2013, 6, 382-391). Briefly, the primary cell-based screen detects site occupancy of NLG sequons using a modified luciferase protein translated into the ER. […] The methodology for the primary (D54-ERlucT), secondary (D54-LucT), and tertiary (luciferase inhibition) screens as well and toxicity assays with CelltitreGlo are deposited in Pubchem (AID 588693).
(§4) To better understand the connection between structure and activity, analogs were prepared and tested in the D54-ERLucT cell based assay for inhibition of N-linked glycosylation (FIG. 1B). The assay was used to estimate and compare AC40 values among analogs and to guide the design of improved compounds that inhibited N-linked glycosylation. This effort generated 36 unique compounds with modifications to the amine component of the sulfonamide functionality (red), the pyrrolidine moiety (blue) or the methylaminothiazole group (green). Generally, incorporation of larger sulfonamides (i.e., larger secondary amines appended to the sulphone) was not well tolerated, resulting in erosion of potency (7 analogs). However, steric interactions could be mitigated by the introduction of a hydrogen bond accepting oxygen in a larger cyclic amine. Thus, morpholine was determined to be an acceptable surrogate for the dimethylamine component of the sulfonamide (FIGS. 1A-1D). The pyrrolidine group (blue) was replaced with various alkyl, cycloalkyl, and amine groups (7 compounds). The aminothiazole moiety was derivatized most extensively of all three regions (green highlighted area, 22 analogs). […] Analogs with the highest potency in the luciferase assay were retested with western blot analysis to insure that measurements of luciferase activation corresponded to loss of N-linked glycosylation.

[1] = Celltiter Glo viability assay, HepG2; details: human, HepG2 cells; HEPG2, 72 h of compound exposure; read-out: Cytotoxicity Assay Mean EC50
Text: as §3, §4

Cc1cnc(NC(=O)c2cc(S(=O)(=O)N(C)C)ccc2N2CCCC2)s1 [NGI-1, 5-(N,N-Dimethylsulfamoyl)-N-(5-methylthiazol-2-yl)-2-(pyrrolidin-1-yl)benzamide]
reduction of cell proliferation, MTT (PC9 cells): more than 90% | effect on proliferation, MTT (H1581 cells): blocked proliferation of the H1581 cell line | effect on proliferation, MTT (A549 cells): continued to proliferate | FGFR1 phosphorylation (FGFR1): blocked FGFR1 phosphorylation | reduction of proliferation, MTT (HCC827 cells): > 45% | Selectivity (EC50/AC40) (HepG2 cells): >172 | EC50 at 72 h [1]: > 30 µM
